Calls of active or inactive are those of the source.
Assays:
[1] = target: T1, G-protein coupled receptor 55 (Homo sapiens, UniProt Q9Y2T6); assay: inhibition of LPI-stimulated GPR55 beta-arrestin translocation – imaging, U2OS, beta-arrestin-GFP, LPI agonist, primary screen (AID 2013); assay type: functional;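 note: antagonist potency measured as reduced agonist-driven arrestin aggregation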
[2] = Luminescence Cell-Based Dose Retest to Confirm Inhibitors of Cancer Stem Cells. [Related pubchem assays (depositor defined):AID2717, AID2721]; assay type: functional; settings: Homo sapiens
Vero = assay: viability of Vero cells under compound – cytotoxicity control for flavivirus capping enzyme inhibitors (AID 588742); assay type: functional; settings: Chlorocebus sabaeus
[3] = target: FAD-linked sulfhydryl oxidase ALR (Homo sapiens, UniProt P55789); assay: ALR-catalysed DTT oxidation blockers – biochemical, H2O2 detection, luminescence, cherry-pick, dose response (AID 493248)
Genome polyprotein = Genome polyprotein (dengue virus type 2, UniProt P29990); assay: flavivirus cap methylation enzyme inhibition – biochemical, confirmation dose response, primary screen (AID 588689); assay type: functional
Large T antigen = Large T antigen (Simian virus 40, UniProt P03070); assay type: functional, Betapolyomavirus macacae;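 note: Confirmatory-stage PubChem screen for compounds that inhibit SV40 T antigen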
[4] = target: Induced myeloid leukemia cell differentiation protein Mcl-1 (Homo sapiens, UniProt Q07820); assay type: functional
[5] = target: T2, High affinity choline transporter 1 (Homo sapiens, UniProt Q9GZV3); assay: human choline transporter blockers, potency – cell-based, 5-point CRC, membrane potential dye, dose response (AID 504840); assay type: functional
T2 sequence (Q9GZV3 whole entry): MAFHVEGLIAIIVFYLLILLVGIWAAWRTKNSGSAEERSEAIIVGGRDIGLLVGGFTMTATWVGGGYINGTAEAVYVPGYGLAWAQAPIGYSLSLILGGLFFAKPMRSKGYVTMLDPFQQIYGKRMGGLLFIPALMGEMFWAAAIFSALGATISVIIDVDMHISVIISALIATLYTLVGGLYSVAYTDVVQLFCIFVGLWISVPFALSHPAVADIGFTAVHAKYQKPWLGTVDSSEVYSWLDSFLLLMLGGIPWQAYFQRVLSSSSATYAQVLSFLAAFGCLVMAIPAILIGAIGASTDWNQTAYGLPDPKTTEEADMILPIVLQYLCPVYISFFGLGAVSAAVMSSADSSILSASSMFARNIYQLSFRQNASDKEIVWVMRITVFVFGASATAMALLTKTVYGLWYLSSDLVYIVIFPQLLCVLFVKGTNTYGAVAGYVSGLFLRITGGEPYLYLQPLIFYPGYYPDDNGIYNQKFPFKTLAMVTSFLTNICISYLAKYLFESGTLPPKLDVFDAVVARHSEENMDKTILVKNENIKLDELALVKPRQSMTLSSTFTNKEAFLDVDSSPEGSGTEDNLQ

[6] = target: T3, Type-1 angiotensin II receptor (Homo sapiens, UniProt P30556); assay: agonist activity at AGTR1 – cell-based, uHTS hits, selectivity assay for APJ receptor agonist project, dose response (AID 488865); assay type: functional;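 note: beta-arrestin recruitment to AT1 measured by enzyme fragment complementation luminescence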
T3 sequence (P30556 whole entry): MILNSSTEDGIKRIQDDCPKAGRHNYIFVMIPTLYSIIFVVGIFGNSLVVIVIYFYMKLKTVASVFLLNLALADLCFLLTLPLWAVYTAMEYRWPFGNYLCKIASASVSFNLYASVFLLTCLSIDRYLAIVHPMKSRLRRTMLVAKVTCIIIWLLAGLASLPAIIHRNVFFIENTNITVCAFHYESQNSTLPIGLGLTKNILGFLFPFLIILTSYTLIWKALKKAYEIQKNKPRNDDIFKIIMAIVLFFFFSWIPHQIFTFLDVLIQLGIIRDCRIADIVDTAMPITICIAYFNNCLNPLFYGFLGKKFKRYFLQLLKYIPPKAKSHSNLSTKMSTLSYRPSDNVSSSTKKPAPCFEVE

[7] = target: T4, Endoribonuclease toxin MazF (Escherichia coli K-12, UniProt P0AE70); assay: substrate-only fluorescence increase artefacts – biochemical, single-stranded RNase substrate, counter-screen for MazEF activator project, dose response (AID 588502); assay type: functional
T4 sequence (P0AE70 whole entry): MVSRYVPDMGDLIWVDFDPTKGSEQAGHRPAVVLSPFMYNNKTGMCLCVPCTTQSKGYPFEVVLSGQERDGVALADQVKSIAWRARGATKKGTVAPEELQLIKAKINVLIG

[8] = target: T5, RNA-binding protein pos-1 (Caenorhabditis elegans, UniProt G5EF15); assay: disruptors of C. elegans POS-1 RNA interaction – biochemical, fluorescence polarization, dose response (AID 1964);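 note: purified POS-1 fused to maltose binding protein made in E. coli; potency of compounds blocking POS-1 binding to fluorescent RNA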
T5 sequence (G5EF15 whole entry): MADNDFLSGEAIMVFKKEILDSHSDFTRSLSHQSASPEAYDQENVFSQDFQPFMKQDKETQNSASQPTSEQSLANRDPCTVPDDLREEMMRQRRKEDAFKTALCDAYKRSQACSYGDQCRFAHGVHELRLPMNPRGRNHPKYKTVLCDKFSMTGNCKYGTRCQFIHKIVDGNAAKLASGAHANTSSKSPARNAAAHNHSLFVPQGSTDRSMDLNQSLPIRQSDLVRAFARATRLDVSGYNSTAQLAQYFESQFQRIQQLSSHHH

[9] = target: T6, Zinc finger protein mex-5 (Caenorhabditis elegans, UniProt Q9XUB2); assay: potency of MEX-5 RNA-binding blockers – biochemical, C. elegans, fluorescence polarization, dose response (AID 1960)
T6 sequence (Q9XUB2 whole entry): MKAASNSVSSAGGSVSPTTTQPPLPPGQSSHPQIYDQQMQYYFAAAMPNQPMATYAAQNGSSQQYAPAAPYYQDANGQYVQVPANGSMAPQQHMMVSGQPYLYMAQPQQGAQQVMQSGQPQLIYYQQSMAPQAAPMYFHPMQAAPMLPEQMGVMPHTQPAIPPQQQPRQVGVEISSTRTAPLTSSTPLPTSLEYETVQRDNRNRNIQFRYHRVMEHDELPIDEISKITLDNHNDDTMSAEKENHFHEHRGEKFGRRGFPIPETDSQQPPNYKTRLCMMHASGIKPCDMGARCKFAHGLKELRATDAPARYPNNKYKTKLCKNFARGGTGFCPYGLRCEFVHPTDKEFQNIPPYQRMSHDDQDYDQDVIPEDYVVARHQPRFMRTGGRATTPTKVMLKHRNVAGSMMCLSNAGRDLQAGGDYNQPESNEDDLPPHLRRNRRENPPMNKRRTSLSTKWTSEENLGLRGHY

NS3 = NS3 (Hepatitis C virus, UniProt A3EZJ3); assay: PubChem AID 2173; parameters: species or system Hepacivirus hominis
[10] = target: T4, Endoribonuclease toxin MazF; assay: activation of MazEF endoribonuclease cleavage – biochemical, fluorescence, single-stranded RNA substrate, uHTS hits, dose response (AID 588481); assay type: functional
Troponin, cardiac muscle = Troponin, cardiac muscle (Homo sapiens, UniProt P19429+P45379+P63316); assay: Fluorescence-based biochemical high throughput dose response assay for activators of the calcium sensitivity of cardiac Regulated Thin Filaments (RTF). [Related pubchem assays (depositor defined):AID493008, AID493018, AID504382, AID504383]; assay type: protein-complex assay
[11] = target: Peroxisome proliferator-activated receptor gamma/Nuclear receptor coactivator 1 (Homo sapiens, UniProt P37231); assay type: functional;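 note: agonist potency as compounds enhance coactivator SRC-1 recruitment to PPARgamma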
[12] = target: Peroxisome proliferator-activated receptor gamma/Nuclear receptor coactivator 3 (Homo sapiens, UniProt P37231); assay type: functional;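 note: agonist potency for raising coactivator recruitment to the receptor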
[13] = target: Peroxisome proliferator-activated receptor gamma/Nuclear receptor coactivator 2 (Homo sapiens, UniProt P37231); assay type: functional;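 note: agonist potency for raising coactivator recruitment to the receptor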
[14] = toxicity toward HepG2 liver cells – cell-based, plate reader, cherry-pick, antagonist series, cytotoxicity control, dose response (AID 743416); assay type: functional
cells [15] = assay type: functional, cell-based
H9c2 = assay: cells; assay type: functional, cell-based; settings: Rattus norvegicus, H9c2, Myocardium;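 note: confirmatory concentration-response retest of ultra-high-throughput screening hits for modulation of myocardial damage; cell death induced by hydrogen peroxide oxidative stress; compound pretreatment for 60 min then peroxide exposure for 2 h; potency is for protecting the cells against peroxide damage rather than for killing them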
[16] = blockade of melanocortin 4 receptor signaling – cell-based, plate reader, cherry pick, counter-screen for LGR2 antagonist project, dose response (AID 743444); assay type: functional;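 note: transfected HEK 293 cells stimulated with alpha-MSH peptide; potency of inhibitors of the alpha-MSH evoked signal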
[17] = A549 cell cytotoxicity, dose response, cytotoxicity control, plate reader, cherry-pick, antagonist series (AID 743412); assay type: functional, cell-based
cells [18] = assay type: functional, cell-based; remark: listed apart in the source
[19] = blockers of bursicon-stimulated LGR2 cAMP reporter – cell-based, HEK293, CRE-luciferase reporter, cherry pick, set 2, dose response (AID 743343); assay type: functional;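 note: transfected cells were stimulated with diluted bursicon conditioned medium after compound addition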
SUMO-activating enzyme [20] = target: T7, SUMO-activating enzyme (Homo sapiens, UniProt Q9UBT2); assay: blockers of SAE1/SAE2–UBC9 SUMO transfer – biochemical, HTRF, uHTS, primary screen (AID 2006); assay type: protein-complex assay
[21] = target: Eukaryotic translation initiation factor 4E (Mus musculus, UniProt P63073); assay: blockers of eIF4G binding by eIF4E – biochemical, TR-FRET, dose response (AID 855); assay type: functional;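 note: potency for disrupting eIF4E binding to eIF4GI seen as loss of FRET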
SUMO-activating enzyme [22] = target: T7, SUMO-activating enzyme; assay: blockers of UBC9-mediated SUMO conjugation – biochemical, AlphaScreen, SUMOylation inhibitor project, confirmation (AID 2018); assay type: functional
[23] = target: T8, Long-chain-fatty-acid--AMP ligase FadD28 (Mycobacterium tuberculosis, UniProt P9WQ59); assay: Fluorescence polarization aasay to screen for inhibitors that compete for the binding of FadD28 to a bisubstrate Measured in Biochemical System Using Plate Reader - 2147-01_Inhibitor_Dose_CherryPick_Activity.; assay type: functional, Mycobacterium tuberculosis H37Rv
T8 sequence (P9WQ59 whole entry): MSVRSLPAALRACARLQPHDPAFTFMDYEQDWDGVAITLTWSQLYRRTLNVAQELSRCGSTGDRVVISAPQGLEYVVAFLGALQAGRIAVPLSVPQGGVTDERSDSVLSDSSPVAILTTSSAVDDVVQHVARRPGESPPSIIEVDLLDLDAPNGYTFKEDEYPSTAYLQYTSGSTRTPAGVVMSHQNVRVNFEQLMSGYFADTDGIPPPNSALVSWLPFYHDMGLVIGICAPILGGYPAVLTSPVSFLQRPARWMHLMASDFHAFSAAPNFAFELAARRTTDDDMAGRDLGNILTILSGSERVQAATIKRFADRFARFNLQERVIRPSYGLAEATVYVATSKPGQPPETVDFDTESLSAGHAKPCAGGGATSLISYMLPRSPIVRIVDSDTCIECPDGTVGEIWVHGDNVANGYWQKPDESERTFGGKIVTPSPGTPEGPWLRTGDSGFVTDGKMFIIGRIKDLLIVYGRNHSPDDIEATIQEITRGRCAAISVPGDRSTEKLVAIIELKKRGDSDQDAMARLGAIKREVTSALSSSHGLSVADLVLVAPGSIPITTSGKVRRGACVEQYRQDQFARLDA

[24] = target: T9, E3 ubiquitin-protein ligase XIAP (Homo sapiens, UniProt P98170); assay: small molecules displacing peptide from XIAP – biochemical, IAP family, fluorescence polarization (AID 1018); assay type: functional
[25] = target: T9, E3 ubiquitin-protein ligase XIAP; assay: Counter Screen using XIAP-Bir3 for Chemical Antagonists of Bir1/2 domains of IAP-family anti-apoptotic proteins. [Related pubchem assays (depositor defined):AID1018, AID1449, AID1514, AID1638, AID1749, AID1750, AID488957, AID488963]
[26] = target: T1, G-protein coupled receptor 55; assay: selective activators of receptor GPR55 – imaging, U2OS cells, beta-arrestin-GFP redistribution, primary screen (AID 1961); assay type: functional

T1 sequence (Q9Y2T6 whole entry): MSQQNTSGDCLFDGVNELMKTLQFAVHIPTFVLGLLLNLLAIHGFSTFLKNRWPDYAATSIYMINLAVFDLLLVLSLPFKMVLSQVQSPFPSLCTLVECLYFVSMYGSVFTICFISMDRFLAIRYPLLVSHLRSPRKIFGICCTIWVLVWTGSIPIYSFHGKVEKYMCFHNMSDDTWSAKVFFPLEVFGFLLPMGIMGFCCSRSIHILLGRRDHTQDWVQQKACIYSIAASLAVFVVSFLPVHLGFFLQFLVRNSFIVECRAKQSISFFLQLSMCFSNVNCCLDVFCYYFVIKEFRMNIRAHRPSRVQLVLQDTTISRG
T9 sequence (P98170 whole entry): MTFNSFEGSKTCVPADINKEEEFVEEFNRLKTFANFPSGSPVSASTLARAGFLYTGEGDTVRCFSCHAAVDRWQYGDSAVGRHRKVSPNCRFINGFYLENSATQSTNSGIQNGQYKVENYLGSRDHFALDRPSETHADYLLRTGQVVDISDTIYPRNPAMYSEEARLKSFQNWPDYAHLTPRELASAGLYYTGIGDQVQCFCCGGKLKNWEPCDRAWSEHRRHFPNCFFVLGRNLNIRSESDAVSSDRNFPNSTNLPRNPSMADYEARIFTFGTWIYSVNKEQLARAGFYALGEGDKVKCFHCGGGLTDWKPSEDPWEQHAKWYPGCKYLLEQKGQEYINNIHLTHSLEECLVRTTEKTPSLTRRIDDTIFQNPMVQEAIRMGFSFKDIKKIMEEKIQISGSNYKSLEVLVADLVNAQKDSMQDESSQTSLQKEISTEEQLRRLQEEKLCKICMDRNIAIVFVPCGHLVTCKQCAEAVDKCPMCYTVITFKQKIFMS
T7 sequence (Q9UBE0 whole entry): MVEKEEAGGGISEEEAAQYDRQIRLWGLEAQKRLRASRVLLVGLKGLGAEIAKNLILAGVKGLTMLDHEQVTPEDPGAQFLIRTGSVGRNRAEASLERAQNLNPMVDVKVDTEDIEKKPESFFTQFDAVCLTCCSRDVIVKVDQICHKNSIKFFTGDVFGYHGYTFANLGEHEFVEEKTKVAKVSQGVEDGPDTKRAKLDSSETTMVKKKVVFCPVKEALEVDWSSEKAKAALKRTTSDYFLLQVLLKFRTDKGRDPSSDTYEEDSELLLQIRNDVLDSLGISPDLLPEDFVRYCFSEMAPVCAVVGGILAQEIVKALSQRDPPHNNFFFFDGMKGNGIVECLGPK
T7 sequence (Q9UBT2 whole entry): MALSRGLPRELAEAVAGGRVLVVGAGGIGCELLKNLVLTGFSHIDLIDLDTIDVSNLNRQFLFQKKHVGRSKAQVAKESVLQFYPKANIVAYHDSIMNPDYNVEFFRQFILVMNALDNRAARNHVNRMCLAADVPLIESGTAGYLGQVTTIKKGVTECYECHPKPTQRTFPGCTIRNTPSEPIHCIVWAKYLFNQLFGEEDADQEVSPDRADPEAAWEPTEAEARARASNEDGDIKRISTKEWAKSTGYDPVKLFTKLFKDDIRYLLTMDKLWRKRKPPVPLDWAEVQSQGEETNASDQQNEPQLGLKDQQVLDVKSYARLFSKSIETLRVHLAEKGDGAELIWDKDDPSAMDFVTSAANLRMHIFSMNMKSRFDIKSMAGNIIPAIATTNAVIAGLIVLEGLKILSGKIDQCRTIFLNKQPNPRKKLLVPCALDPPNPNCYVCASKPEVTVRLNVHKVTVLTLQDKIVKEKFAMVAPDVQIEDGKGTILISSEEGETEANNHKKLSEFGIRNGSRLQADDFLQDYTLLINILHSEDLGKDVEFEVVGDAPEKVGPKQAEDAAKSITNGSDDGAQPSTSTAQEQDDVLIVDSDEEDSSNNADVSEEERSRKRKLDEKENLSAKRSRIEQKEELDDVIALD
Peroxisome proliferator-activated receptor gamma/Nuclear receptor coactivator 3, sequence (P37231 whole entry): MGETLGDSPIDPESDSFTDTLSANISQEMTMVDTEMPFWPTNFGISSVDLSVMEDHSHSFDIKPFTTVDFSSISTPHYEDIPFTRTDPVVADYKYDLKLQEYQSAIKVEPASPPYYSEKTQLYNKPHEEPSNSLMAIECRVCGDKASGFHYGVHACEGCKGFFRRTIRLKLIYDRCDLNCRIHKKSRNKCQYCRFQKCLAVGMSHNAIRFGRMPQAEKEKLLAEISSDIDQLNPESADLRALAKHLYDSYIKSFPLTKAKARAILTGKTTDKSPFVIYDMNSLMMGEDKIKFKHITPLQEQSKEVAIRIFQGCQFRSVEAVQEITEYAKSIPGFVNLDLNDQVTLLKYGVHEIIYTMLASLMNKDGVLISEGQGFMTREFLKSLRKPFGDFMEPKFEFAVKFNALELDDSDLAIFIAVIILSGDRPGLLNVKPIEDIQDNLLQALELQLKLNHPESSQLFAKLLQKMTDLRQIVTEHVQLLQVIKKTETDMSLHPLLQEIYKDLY
Peroxisome proliferator-activated receptor gamma/Nuclear receptor coactivator 3, sequence (Q9Y6Q9 whole entry, further chain): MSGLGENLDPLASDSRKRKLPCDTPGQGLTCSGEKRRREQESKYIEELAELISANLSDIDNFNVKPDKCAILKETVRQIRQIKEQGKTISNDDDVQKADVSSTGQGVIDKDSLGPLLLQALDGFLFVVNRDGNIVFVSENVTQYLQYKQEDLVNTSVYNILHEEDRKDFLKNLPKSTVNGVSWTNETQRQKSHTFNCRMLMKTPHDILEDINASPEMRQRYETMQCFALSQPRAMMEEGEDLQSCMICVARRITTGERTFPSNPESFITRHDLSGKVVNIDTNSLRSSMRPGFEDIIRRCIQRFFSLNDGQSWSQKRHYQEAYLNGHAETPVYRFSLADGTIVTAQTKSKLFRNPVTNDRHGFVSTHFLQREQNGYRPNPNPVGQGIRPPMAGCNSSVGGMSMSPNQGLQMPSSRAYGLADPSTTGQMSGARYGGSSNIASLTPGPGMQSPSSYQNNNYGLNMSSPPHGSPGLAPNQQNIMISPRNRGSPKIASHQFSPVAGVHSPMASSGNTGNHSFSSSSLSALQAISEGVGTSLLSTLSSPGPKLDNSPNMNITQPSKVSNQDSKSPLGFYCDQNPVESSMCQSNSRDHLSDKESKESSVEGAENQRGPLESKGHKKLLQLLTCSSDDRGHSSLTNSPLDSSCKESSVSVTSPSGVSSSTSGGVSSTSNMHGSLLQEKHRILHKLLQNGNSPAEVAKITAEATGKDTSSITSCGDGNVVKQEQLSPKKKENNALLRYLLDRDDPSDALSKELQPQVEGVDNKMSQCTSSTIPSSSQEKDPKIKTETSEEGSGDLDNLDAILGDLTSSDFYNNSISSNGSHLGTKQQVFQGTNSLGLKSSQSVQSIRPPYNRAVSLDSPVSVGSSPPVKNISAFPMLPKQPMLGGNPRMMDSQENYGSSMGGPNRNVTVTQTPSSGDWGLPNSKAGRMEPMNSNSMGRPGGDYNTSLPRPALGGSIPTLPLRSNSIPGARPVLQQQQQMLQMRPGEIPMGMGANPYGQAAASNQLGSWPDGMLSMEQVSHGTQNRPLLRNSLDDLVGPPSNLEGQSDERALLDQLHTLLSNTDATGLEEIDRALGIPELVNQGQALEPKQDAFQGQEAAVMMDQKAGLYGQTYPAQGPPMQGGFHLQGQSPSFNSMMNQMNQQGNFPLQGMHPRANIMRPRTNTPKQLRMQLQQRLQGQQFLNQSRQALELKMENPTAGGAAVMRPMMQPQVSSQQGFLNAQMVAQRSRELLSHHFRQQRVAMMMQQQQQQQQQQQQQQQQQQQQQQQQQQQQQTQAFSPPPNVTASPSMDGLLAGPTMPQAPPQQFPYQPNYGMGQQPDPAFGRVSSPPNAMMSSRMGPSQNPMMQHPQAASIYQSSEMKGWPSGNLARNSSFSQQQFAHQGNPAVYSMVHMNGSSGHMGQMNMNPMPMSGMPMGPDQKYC
Eukaryotic translation initiation factor 4E, sequence (P63073 whole entry): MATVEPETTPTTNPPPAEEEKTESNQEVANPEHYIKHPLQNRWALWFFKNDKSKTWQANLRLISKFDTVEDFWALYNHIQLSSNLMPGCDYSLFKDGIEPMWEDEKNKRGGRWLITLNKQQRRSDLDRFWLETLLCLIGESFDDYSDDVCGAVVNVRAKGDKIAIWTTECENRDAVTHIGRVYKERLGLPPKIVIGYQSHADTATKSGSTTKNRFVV
Genome polyprotein, sequence (P29990 2492-3391 limits assumed): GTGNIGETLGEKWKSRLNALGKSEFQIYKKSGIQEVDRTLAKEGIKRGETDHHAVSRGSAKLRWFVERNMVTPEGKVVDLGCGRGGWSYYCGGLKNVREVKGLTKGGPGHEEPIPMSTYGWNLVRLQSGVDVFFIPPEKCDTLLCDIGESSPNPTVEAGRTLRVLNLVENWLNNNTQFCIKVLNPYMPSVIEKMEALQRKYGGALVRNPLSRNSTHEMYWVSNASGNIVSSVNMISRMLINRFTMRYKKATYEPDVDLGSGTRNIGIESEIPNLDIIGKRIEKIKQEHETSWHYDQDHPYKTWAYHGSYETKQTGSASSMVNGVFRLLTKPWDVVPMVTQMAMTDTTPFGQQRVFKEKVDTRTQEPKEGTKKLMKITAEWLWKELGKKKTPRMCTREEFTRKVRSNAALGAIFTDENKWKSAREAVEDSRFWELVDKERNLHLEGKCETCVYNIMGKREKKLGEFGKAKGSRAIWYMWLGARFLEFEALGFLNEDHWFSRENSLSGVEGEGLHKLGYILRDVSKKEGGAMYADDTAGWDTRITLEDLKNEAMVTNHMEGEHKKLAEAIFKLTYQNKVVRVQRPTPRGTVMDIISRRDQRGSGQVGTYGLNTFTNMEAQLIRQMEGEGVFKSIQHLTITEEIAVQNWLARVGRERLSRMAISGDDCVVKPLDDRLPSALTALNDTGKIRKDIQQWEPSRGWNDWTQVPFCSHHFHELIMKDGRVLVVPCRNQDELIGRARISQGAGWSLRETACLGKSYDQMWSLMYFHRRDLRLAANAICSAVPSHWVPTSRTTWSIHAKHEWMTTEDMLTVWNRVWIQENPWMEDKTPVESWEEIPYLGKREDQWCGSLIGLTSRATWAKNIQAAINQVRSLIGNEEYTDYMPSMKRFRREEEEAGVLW

Structure (SMILES): Cc1ccc(N2NC(=O)/C(=C\c3cc4c(cc3[N+](=O)[O-])OCO4)C2=O)cc1C
- IC50 [1]: 3.3 µM (active)
- AC50 [2]: 3.65 µM (active)
- CC50 (Vero): > 40 µM (active)
- AC50 [3]: 0.321 µM (active)
- IC50 (Genome polyprotein): 27 µM (active)
- IC50 (Large T antigen): 23 µM (active)
- IC50 [4]: 4.66 µM (active)
- IC50 [5]: 3.98 µM (active)

Structure (SMILES): CN(C)CCCN(C(=O)c1ccc(S(=O)(=O)N2CCc3ccccc3C2)cc1)c1nc2c(F)cccc2s1
- EC50 [6]: > 100 µM (inactive)

Structure (SMILES): C#CCN(CC=C)C(=O)c1ccc2nc(C3CCCCC3)oc2c1
- IC50 [1]: 4.55 µM (active)

Structure (SMILES): CSc1ccc(C2C(C(=O)c3ccco3)=C(O)C(=O)N2c2nnc(SC)s2)cc1 (configuration not stated)
- EC50 [7]: > 99 µM (inactive)
- EC50 [8]: 6.79 µM (active)
- EC50 [9]: 16.4 µM (active)
- IC50 (NS3): 4.87 µM (active)
- EC50 [10]: > 99 µM (inactive)
- EC50 (Troponin, cardiac muscle): 0.279 µM (active)

Structure (SMILES): Cn1nc(-c2ccccc2)c(C(=O)Nc2ccc(C(F)(F)F)cc2)c1Cl
- EC50 [11]: > 79.4 µM (not active)
- EC50 [12]: > 79.4 µM (not active)
- EC50 (Troponin, cardiac muscle): > 71.5 µM (inactive)
- EC50 [13]: > 79.4 µM (not active)

Structure (SMILES): CC(C)C(=O)N1CCN(c2ccc(NC(=O)COc3ccccc3[N+](=O)[O-])cc2)CC1
- AC50 [14]: 41.7 µM (active)
- EC50 (cells [15]): > 350 µM (not active)
- IC50 (H9c2): > 79 µM (inactive)
- AC50 [16]: 20 µM (active)
- AC50 [17]: > 52 µM (inactive)
- EC50 [6]: > 100 µM (inactive)
- EC50 (cells [18]): > 350 µM (not active)
- AC50 [19]: 31.2 µM (active)

Structure (SMILES): Cc1ccc(NC(=O)CN2C(=O)S/C(=C\c3ccc(-c4cccc(C(=O)O)c4C)o3)C2=O)cc1C
- IC50 (SUMO-activating enzyme [20]): 6.48 µM (active)
- IC50 [21]: 27.9 µM (active)
- IC50 (SUMO-activating enzyme [22]): 6.11 µM (active)
- AC50 [23]: 52.8 µM (active)

Structure (SMILES): Cc1ccc(NS(=O)(=O)c2cc(C(=O)N(C)C)ccc2C)cc1C
- IC50 [24]: > 100 µM (not active)
- IC50 [25]: > 100 µM (inactive)

Structure (SMILES): CCC(C)NC(=O)C(=O)NC1CCCC1 (configuration not stated)
- IC50 [24]: > 100 µM (not active)
- IC50 [25]: > 100 µM (inactive)

Structure (SMILES): Cc1cc(C)c(/C=N/NC(=O)c2nnn(-c3nonc3N)c2CN2CCC(C)CC2)c(C)c1
- EC50 [26]: 8.18 µM (active)

Reference: ChEMBL document CHEMBL1201862, “PubChem BioAssay data set” (2004)
